Measurements reported in patent US11413348B2, “Low molecular weight cationic lipids for oligonucleotide delivery” (SIRNA THERAPEUTICS, INC., priority 2010, dated 2022).

Biological target: T1, ApoE (Macaca mulatta, UniProt Q28502)
T1 construct: from tissue; host or cells: rhesus serum
Test: In vitro ApoE binding assay (anti-PEG capture, ApoE ELISA, stem-loop RT-PCR)
Settings: LNP 4 ug/mL in 90% rhesus serum, 37° C., 20 minutes; estimate of 500 siRNA per LNP
Description: LNPs are incubated at 37° C. in 90% rhesus serum at a final LNP concentration of 4 ug/mL. Incubation is for 20 minutes with orbital rotation. After incubation, the samples are diluted 1:20 in PBS and 100 uL of each diluted sample is aliquoted to wells of an anti-PEG antibody coated 96-well plate (Life Diagnostics Cat. No. P-0001PL. After incubation at room temperature for 1 hour, the plate is washed 5× with 300 uL PBS. After washing, 50 uL of 0.2% Triton X-100 is added to each well and the plate incubated at 37° C. for 10 minutes, followed by shaking on a plate shaker for 1 minute at 750 rpm. Samples are frozen prior to performing the ApoE ELISA and stem loop PCR analysis of samples.
An ApoE ELISA assay is performed to quantitate ApoE bound to the LNPs after incubation in rhesus serum. Anti-ApoE antibody (Milipore, Cat No. AB947) is diluted 1:1000 in PBS and 100 uL of diluted antibody is added to each well of a polystyrene high binding plate. The plate with antibody is incubated overnight at 4° C., after which the plate is washed 2× with 200 uL of PBS. Next, 200 uL of buffer containing 1% BSA and 0.05% Tween-20 in PBS (Incubation Buffer) is added to each well followed by incubation at room temperature for 1 hour. Plates are washed 5× with PBS containing 0.05% Tween-20. Frozen Triton lysis test samples are thawed and diluted 1:6 with incubation buffer and 100 uL of test sample is aliquoted to wells of the ApoE antibody plate. Incubation is for 1 hour at room temperature followed by a 5× wash with PBS containing 0.05% Tween-20. After washing, 100 uL of biotinylated anti-ApoE antibody (Mabtech, Cat. ANo. E887-biotin), diluted 1:500 in incubation buffer, is added to each well and incubated for 1 hour at room temperature, followed by a 5× wash with 0.05% Tween-20 in PBS. 100 uL per well, of Streptavidin-HPR (Thermo, Cat. No. TS-125-HR), is then added and incubated for 1 hour at room temperature. After washing 5× with 0.05% Tween-20 in PBS, 100 uL of TMB Substrate (Thermo, Cat. No. 34028) is added to each well, followed by incubation at room temperature for 20 minutes in the dark. The calorimetric reaction is slopped with 100 uL of TMB Stop Solution (KPL, Cat. No. 50-85-04) and absorbance at 450 nm is determined. An ApoE standard curve is prepared by diluting rhesus Recombinant ApoE in incubation buffer with 0.03% Triton X-100 with concentrations ranging from 100 ng/mL to 0.78 ng/mL. ApoE standards are evaluated in the ELISA in parallel to the test samples. A rhesus serum only (no LNP) control is utilized to obtain a background subtraction for non-LNP dependent ApoE signal in the ELISA.
To normalize to the ApoE bound to the amount of LNP bound to the anti-PEG antibody plate, the amount of siRNA retained in the anti-PEG antibody well is quantitated by stem-loop PCR and related to the number of siRNAs encapsulated per LNP, to give an approximate measure of total LNP particles bound per well.
The standard curve is prepared using the molecular weight of the siRNA (13693 g/mol for ApoB 17063) to calculate the copy number. The high standard should contain 10^11 copies per 3 μl. A 10-fold serial dilution is performed across a row of an assay plate until the lowest standard contains 10^2 copies per 3 μl. Dilute 0.2% Triton X-100 1:80 in water and pipette 20 uL of the diluted Triton X-100 into 10 wells of a 96 well plate. 30 uL of the serial diluted standard curve and mix are added to each well of the plate. 10 uL of the spiked standard curve is used in the reverse transcription reaction.
Triton lysates from the PEG antibody plate capture are diluted 1 to 2000 in nuclease free water. 10 uL of ‘RT-Primer Mix’ (Applied Biosystem's TaqMan MicroRNA Reverse Transcription Kit Cat. No. 4366596) is added to each well of a 96-well Micro-Amp QPCR plate (ABI Cat #N801-0560).
[…] of each test sample (diluted 1 to 2000) or spiked standard curve (above) are aliquoted into the 96-well plate. […]

T1 sequence (Q28502 19-295): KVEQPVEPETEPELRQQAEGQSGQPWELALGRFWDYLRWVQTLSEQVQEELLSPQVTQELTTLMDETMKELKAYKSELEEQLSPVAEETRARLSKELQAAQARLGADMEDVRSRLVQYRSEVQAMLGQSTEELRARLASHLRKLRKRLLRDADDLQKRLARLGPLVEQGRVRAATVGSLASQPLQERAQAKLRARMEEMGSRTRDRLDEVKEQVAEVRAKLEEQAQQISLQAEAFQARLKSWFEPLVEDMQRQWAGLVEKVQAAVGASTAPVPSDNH

SMILES	ApoE Molecules/LNP [Molecules/LNP]
CCCCC/C=C\C/C=C\CCCCCCCCCC(CCCCCCCCC)CCN(C)C (centres unmarked) [Compound 32, (13Z,16Z)—N,N-dimethyl-3-nonyldocosa-13,16-dien-1-amine]	12.8
CCCCCCCCCC(CCCCCCCC1CC1CCCCCCCC)N(C)C [Compound 33, N,N-dimethyl-1-[(1S,2R)-2-octylcyclopropyl]hepladecan-8-amine]	18.1
